Data as given in US4443460A, “2-[4-(Diphenylmethylene)-1-piperidinyl]-acetic acids and their amides” (UCB, Societe Anonyme, priority 1980, dated 1984).
Structures can show the parent of a compound that is named as a salt.

Key:
[1] = test system: mice; test: General behaviour of mice (Irwin's test), tranquilization; assay type: in vivo; conditions: male mice, intraperitoneal
Experimental: The behaviour is studied by means of Irwin's test (see S. Irwin, "General philosophy and methodology of screening: a multidimensional approach"; Gordon Research Conference on Medicinal Chemistry, Aug. 3-7, 1959, at Colby Junior College, New London).
(§1) Progressive doses of the test compounds are administered intraperitoneally to groups of three male mice (body weight 18 to 22 g) and the general behaviour of the animals is observed according to known criteria. The reference compounds used are the following:
The following Table gives the doses (in mg/kg) which induce the first manifestations of tranquilization in the animals: […]

[2] = test system: mice; conditions: mouse, in vivo, ip
Experimental: as §1
Furthermore, in this test, the toxicity of the compounds according to the present invention appears to be very low. This toxicity, determined by intraperitoneal administration in mice (dose which brings about the death of two animals out of three), is given in the following Table: […]

[3] = test system: bronchospasms induced by serotonin; test: Konzett-Roessler bronchospasm test, serotonin-induced; assay type: in vivo; conditions: Cavia porcellus, iv, guinea pigs, i.v., read-out: dose which inhibits 50% of the induced bronchospasms, Serotonin
Experimental: (§2) These activities were measured in guinea pigs by the method of H. Konzett and R. […] Anaesthetized and curarized guinea pigs are subjected to artificial ventilation. The endotracheal pressure is recorded. Repeated bronchial spasms are induced by successive and progressive intravenous injections of respectively acetylcholine, histamine and serotonin. The test compounds are also administered intravenously.

[4] = Oral toxicity LD50 in rats; conditions: rat, in vivo
Experimental: (§3) The compounds according to the present invention have a very low toxicity. The toxicity LD50 (in mg/kg) is determined by oral administration to rats and mice. Thus, in the case of compound A, this toxicity is 1903 mg/kg in rats and 959 mg/kg in mice.

[5] = test system: bronchospasms induced by histamine; test: Konzett-Roessler bronchospasm test, histamine-induced (antihistaminic activity); assay type: in vivo; conditions: guinea pigs, i.v.; for ED50: Cavia porcellus, iv, histamine-induced, read-out: dose which inhibits 50% of the induced bronchospasms, Histamine
Experimental: as §2

[6] = Oral toxicity LD50 in mice; conditions: mouse, in vivo
Experimental: as §3

[7] = test system: bronchospasms induced by acetylcholine; test: Konzett-Roessler bronchospasm test, acetylcholine-induced; assay type: in vivo; conditions: Cavia porcellus, iv, guinea pigs, i.v., read-out: dose which inhibits 50% of the induced bronchospasms, Acetylcholine
Experimental: as §2

[8] = test system: passive cutaneous anaphylaxis; test: passive cutaneous anaphylaxis test (PCA), antiallergic activity; assay type: in vivo; conditions: rats; for ED50: Rattus norvegicus, 0.25 h, read-out: ID 50 per os (reduction of 50% of the surface area of the colored spot)
Experimental: This activity is determined in rats by means of the passive cutaneous anaphylaxis test (PCA) (see J. Goose and A. M. J. N. Blair, Immunology,16,(1969),749-760; and U. Martin and D. Roemer, Arzneimittel-Forschung,28,(5), (1978),770-782).
Female rats are used, the sides of which have been partly shaved. Into the zone thus shaved there is injected intradermally, for passive sensitization of the animals, 0.05 ml of IGE antiovalbumin serum at a dilution such that, at the time of the PCA test, a distinct spot with a surface area of about 100 mm^2 appears at the point of injection.
72 Hours after the injection, 0.25 ml of a solution of allergen containing a coloring agent (5 mg of ovalbumin and 6 mg Evans Blue in 0.25 ml of a 0.9% aqueous solution of sodium chloride) is administered intravenously. At the point of intradermal injection, there appears a distinct blue spot, the surface of which is measured.
In order to test the activity of the compound according to the present invention, the procedure is carried out in the same manner; however:
the test compound is administered orally 72 hours after injection of the serum;
15 minutes after this administration, 0.25 ml of the solution of the allergen is injected intravenously;
30 minutes after the administration of the allergen, the surface of the blue spot is measured.
The following Table gives the immunological doses (ID 50 in μmol/kg) which bring about, on average of the total number of animals submitted to the test, a reduction of 50% of the surface area of the colored spot.

[9] = test system: respiratory spasm induced by pilocarpine; test: pilocarpine dog test, broncholytic activity; assay type: in vivo; conditions: dogs, i.v.
Experimental: Anaesthetized and curarized dogs are subjected to artificial ventilation. The endotracheal pressure is recorded. A constant respiratory spasm is induced by the continuous intravenous perfusion of pilocarpine. The test substances are also administered intravenously.

[10] = oral, allergen i.v. 15 minutes after administration

With OCCOCCN1CCN(C(c2ccccc2)c2ccc(Cl)cc2)CC1 (stereo not drawn) [Hydroxyzine, 1-(p-chloro-alpha-phenylbenzyl)-4-(2-hydroxyethoxyethyl)piperazine, reference compound] the “"Tranquilizing" dose (first manifestations of tranquilization)” value (“"Tranquilizing" dose” below) [1] was 27 mg/kg.

For O=C1Nc2ccc(Cl)cc2C(c2ccccc2)=NC1O (stereo not shown) [Oxazepam, 7-chloro-1,3-dihydro-3-hydroxy-5-phenyl-2H-1,4-benzodiazepin-2-one, reference compound], the “"Tranquilizing" dose” value [1] was 2.6 mg/kg.

With Cl.O=C(O)COCCOCCN1CCC(=C(c2ccccc2)c2ccccc2)CC1 [compound A, 2-[2-[2-[4-(diphenylmethylene)-1-piperidinyl]ethoxy]ethoxy]-acetic acid hydrochloride] the “Toxicity (dose which brings about the death of two animals out of three)” value (shortened to “Toxicity”) [2] was 432 mg/kg, the ED50 [3] was 2.56 mg/kg and the LD50 [4] was 1900 mg/kg. The ED50 [5] was 2.65 mg/kg, the “antihistaminic activity 4 hours after injection” value ([5]; 1 mg/kg, 4 hours) was “retains this activity” and the “antihistaminic activity after 90 minutes” value ([5]; 1 mg/kg, after 90 minutes) was 100%. The “"Tranquilizing" dose” value [1] was 130 mg/kg, the LD50 [6] was 959 mg/kg and the ED50 [7] was 4.13 mg/kg. For the same compound, the ED50 [8, 10] was 133 µmol/kg, the “reduction of the intensity of the induced spasm” value ([9]; 320 μg/kg) was 50% and the “broncholytic activity compared with theophylline (in words)” value ([9]; vs theophylline) was “clearly superior to that of theophylline”.

In the case of Cl.O=C(O)COCCN1CCC(=C(c2ccccc2)c2ccccc2)CC1 [compound B, 2-[2-[4-(diphenylmethylene)-1-piperidinyl]ethoxy]-acetic acid hydrochloride], the “Toxicity” value [2] is reported as 233 mg/kg, the ED50 [3] is reported as 0.206 mg/kg and the ED50 [5] is reported as 0.037 mg/kg. For the same compound, the “"Tranquilizing" dose” value [1] was 105 mg/kg, the ED50 [7] was greater than 82.5 mg/kg and the ED50 [8, 10] was 39 µmol/kg.

With Cl.NC(=O)COCCOCCN1CCC(=C(c2ccccc2)c2ccccc2)CC1 [compound C, 2-[2-[2-[4-(diphenylmethylene)-1-piperidinyl]ethoxy]ethoxy]-acetamide hydrochloride] the “Toxicity” value [2] was 258 mg/kg, the ED50 [3] was 0.009 mg/kg and the ED50 [5] was 0.031 mg/kg. It also gave an ED50 [7] of 0.47 mg/kg and an ED50 [8, 10] of 76 µmol/kg.

With Cl.NC(=O)COCCN1CCC(=C(c2ccccc2)c2ccc(Cl)cc2)CC1 [compound D, 2-[2-[4-[(4-chlorophenyl)phenylmethylene]-1-piperidinyl]ethoxy]-acetamide hydrochloride] the “Toxicity” value [2] was 126 mg/kg and the ED50 [8, 10] was 67.4 µmol/kg.

In the case of NC(=O)COCCOCCN1CCC(=C(c2ccccc2)c2ccc(Cl)cc2)CC1 [compound E, 2-[2-[2-[4-[(4-chlorophenyl)phenylmethylene]-1-piperidinyl]ethoxy]ethoxy]-acetamide], the “Toxicity” value [2] is reported as 128 mg/kg, the ED50 [3] is reported as 0.085 mg/kg and the ED50 [5] is reported as 0.348 mg/kg. For the same compound, the ED50 [7] was greater than 4.29 mg/kg and the ED50 [8, 10] was 34 µmol/kg.

For NC(=O)COCCN1CCC(=C(c2ccccc2)c2ccccc2Cl)CC1 [compound F, 2-[2-[4-[(2-chlorophenyl)phenylmethylene-1-piperidinyl]ethoxy]-acetamide hydrochloride], the “Toxicity” value [2] was 421 mg/kg, the ED50 [3] was 0.055 mg/kg and the ED50 [5] was 0.551 mg/kg. For the same compound, the “"Tranquilizing" dose” value [1] was “no sedative effect at all”, the ED50 [7] was greater than 1.35 mg/kg and the ED50 [8, 10] was 66 µmol/kg.

For NC(=O)COCCN1CCC(=C(c2ccccc2)c2ccc(F)cc2)CC1 [compound G, 2-[2-[4-[(4-fluorophenyl)phenylmethylene]-1-piperidinyl]ethoxy]-acetamide], the “Toxicity” value [2] was 368 mg/kg, the ED50 [3] was 0.023 mg/kg and the ED50 [5] was 0.093 mg/kg. It also gave an ED50 [7] greater than 11.8 mg/kg and an ED50 [8, 10] of 5.5 µmol/kg.

With COc1ccc(C(=C2CCN(CCOCC(N)=O)CC2)c2ccccc2)cc1.Cl [compound H, 2-[2-[4-[(4-methoxyphenyl)phenylmethylene]-1-piperidinyl]ethoxy]-acetamide hydrochloride] the “Toxicity” value [2] was 416 mg/kg, the ED50 [3] was 0.18 mg/kg and the ED50 [5] was 0.026 mg/kg. For the same compound, the ED50 [7] was greater than 41.6 mg/kg and the ED50 [8, 10] was 31.4 µmol/kg.

In the case of Cl.O=C(O)COCCN1CCC(=C(c2ccccc2)c2ccc(Cl)cc2)CC1 [compound I, 2-[2-[4-[(4-chlorophenyl)phenylmethylene]-1-piperidinyl]ethoxy]-acetic acid hydrochloride], the “Toxicity” value [2] is reported as 844 mg/kg, the ED50 [3] is reported as 1.18 mg/kg and the ED50 [5] is reported as 0.413 mg/kg. The “"Tranquilizing" dose” value [1] was 76 mg/kg, the ED50 [7] was 13.5 mg/kg and the ED50 [8, 10] was 100 µmol/kg.

For Cl.O=C(O)COCCOCCN1CCC(=C(c2ccccc2)c2ccc(Cl)cc2)CC1 [compound J, 2-[2-[2-[4-[(4-chlorophenyl)phenylmethylene]-1-piperidinyl]ethoxy]ethoxy]-acetic acid hydrochloride], the “Toxicity” value [2] was 140 mg/kg, the ED50 [3] was 0.796 mg/kg and the ED50 [5] was 0.283 mg/kg. The “"Tranquilizing" dose” value [1] was 47 mg/kg, the ED50 [7] was greater than 46.6 mg/kg and the ED50 [8, 10] was 100 µmol/kg.

For Cl.O=C(O)COCCN1CCC(=C(c2ccccc2)c2ccccc2Cl)CC1 [compound K, 2-[2-[4-[(2-chlorophenyl)phenylmethylene]-1-piperidinyl]ethoxy]-acetic acid hydrochloride], the “Toxicity” value [2] was 422 mg/kg, the ED50 [3] was 0.43 mg/kg and the ED50 [5] was 0.104 mg/kg. The “"Tranquilizing" dose” value [1] was 126 mg/kg, the ED50 [7] was 39.5 mg/kg and the ED50 [8, 10] was 100 µmol/kg.

With O=C(O)COCCN1CCC(=C(c2ccccc2)c2ccc(F)cc2)CC1 [compound L, 2-[2-[4-[(4-fluorophenyl)phenylmethylene]-1-piperidinyl]ethoxy]-acetic acid] the “Toxicity” value [2] was 369 mg/kg, the ED50 [3] was 0.198 mg/kg and the ED50 [5] was 0.058 mg/kg. The “"Tranquilizing" dose” value [1] was 110 mg/kg, the ED50 [7] was greater than 11.8 mg/kg and the ED50 [8, 10] was 34 µmol/kg.

In the case of COc1ccc(C(=C2CCN(CCOCC(=O)O)CC2)c2ccccc2)cc1.Cl [compound M, 2-[2-[4-[(4-methoxyphenyl)phenylmethylene]-1-piperidinyl]ethoxy]-acetic acid hydrochloride], the “Toxicity” value [2] is reported as 418 mg/kg, the ED50 [3] is reported as 0.893 mg/kg and the ED50 [5] is reported as 0.181 mg/kg. The “"Tranquilizing" dose” value [1] was 125 mg/kg, the ED50 [7] was greater than 41.8 mg/kg and the ED50 [8, 10] was 208 µmol/kg.

With Cl.O=C(COCCOCCN1CCC(=C(c2ccccc2)c2ccccc2)CC1)Nc1ccccc1 [compound N, 2-[2-[2-[4-(diphenylmethylene)-1-piperidinyl]ethoxy]ethoxy]-N-phenylacetamide hydrochloride] the ED50 [3] was 0.086 mg/kg, the ED50 [5] was 0.192 mg/kg and the ED50 [7] was 1.35 mg/kg. For the same compound, the ED50 [8, 10] was 15.2 µmol/kg.

With O=C(O)c1cc(=O)c2c(OCC(O)COc3cccc4oc(C(=O)O)cc(=O)c34)cccc2o1 [sodium cromoglycate, reference compound] the “ID 50 per os (reduction of 50% of the surface area of the colored spot)” value [8, 10] was “inactive” and the “activity when administered per os (in words)” value ([8]; per os) was “inactive”.

In the case of Cn1c(=O)c2[nH]cnc2n(C)c1=O [theophylline, reference compound], the “reduction of the intensity of the induced spasm” value ([9]; 3200 μg/kg) is reported as 35%.
